# Results taken from patent publication US12000819B2, “Gas concentration prediction method” (DAIKIN INDUSTRIES, LTD., priority 2018, dated 2024).
# Assay: Concentration of gas dissolved in cell culture liquid or pure water after bubbling, measured by gas chromatography
# Type: physicochemical
# Conditions: for Correction coefficient α: ratio of average gas concentrations in cell culture liquid and pure water
# Description: The gas shown in Table 1 was bubbled at 20 mL/min for 1 minute in 5 mL of a cell culture medium (liquid containing 6.4 g/L of sodium chloride, 4.7 g/L of D-glucose, 3.7 g/L of sodium bicarbonate, L-lysine hydrochloride, 0.84 g/L of L-arginine hydrochloride, 0.58 g/L of L-glutamine, and 0.3 g/L of calcium chloride) or in 5 mL of purified water, at a liquid temperature of 23° C.; and dissolved. Subsequently, the concentration of a gas dissolved in the cell culture liquid or pure water was measured by gas chromatography (Shimadzu Corporation). Each measurement was repeated three times, and the average gas concentration was calculated. The correction coefficient α was then obtained by dividing the average gas concentration in the cell culture liquid by the average gas concentration in the pure water.
# At a later date, the same measurements as above were performed, and the correction coefficient was calculated in the same manner.
# [1] = Table 1, gas bubbled at 20 mL/min for 1 minute in 5 mL cell culture medium, liquid temperature 23° C., average of three measurements
# [2] = Table 1, gas bubbled at 20 mL/min for 1 minute in 5 mL purified water, liquid temperature 23° C., average of three measurements
# [3] = Table 2, repeated at a later date
# [4] = Table 2, same measurements repeated at a later date, cell culture medium, 23° C.
# [5] = Table 2, same measurements repeated at a later date, purified water, 23° C.
Structure (SMILES),"Gas concentration, Cell culture liquid [1]","Gas concentration, Pure water [2]",Correction coefficient α (Table 1),Correction coefficient α [3],"Gas concentration, Cell culture liquid [4]","Gas concentration, Pure water [5]"
FCF [CH2F2],2972 ppm,4140 ppm,1.39,1.36,2701 ppm,3673 ppm
FCC(F)(F)F [CH2F—CF3],529 ppm,656 ppm,1.24,1.26,599 ppm,755 ppm
FC(F)Cl [CHF2Cl],1785 ppm,2399 ppm,1.34,1.33,1820 ppm,2421 ppm
C=C(F)C(F)(F)F [CF3—CF═CH2],262 ppm,331 ppm,1.26,1.25,288 ppm,360 ppm
